Experimental findings from patent publication US8618133B2, “Aralkyl alcohol pyridine derivative compounds and the use thereof as medicaments for treating depression” (priority 2008, dated 2013) are described below.

For data set [1], the target named is T1, reuptake of 5-serotonin (5-HT) by brain synaptosomes (Rattus norvegicus, UniProt P31652).
T1 construct: taking prefrontal cortex for the [^3H]5-HT and [^3H]NA reuptake experiment; from tissue; host or cells: rat brain prefrontal cortex synaptosomes
T1 sequence (P31652 whole entry): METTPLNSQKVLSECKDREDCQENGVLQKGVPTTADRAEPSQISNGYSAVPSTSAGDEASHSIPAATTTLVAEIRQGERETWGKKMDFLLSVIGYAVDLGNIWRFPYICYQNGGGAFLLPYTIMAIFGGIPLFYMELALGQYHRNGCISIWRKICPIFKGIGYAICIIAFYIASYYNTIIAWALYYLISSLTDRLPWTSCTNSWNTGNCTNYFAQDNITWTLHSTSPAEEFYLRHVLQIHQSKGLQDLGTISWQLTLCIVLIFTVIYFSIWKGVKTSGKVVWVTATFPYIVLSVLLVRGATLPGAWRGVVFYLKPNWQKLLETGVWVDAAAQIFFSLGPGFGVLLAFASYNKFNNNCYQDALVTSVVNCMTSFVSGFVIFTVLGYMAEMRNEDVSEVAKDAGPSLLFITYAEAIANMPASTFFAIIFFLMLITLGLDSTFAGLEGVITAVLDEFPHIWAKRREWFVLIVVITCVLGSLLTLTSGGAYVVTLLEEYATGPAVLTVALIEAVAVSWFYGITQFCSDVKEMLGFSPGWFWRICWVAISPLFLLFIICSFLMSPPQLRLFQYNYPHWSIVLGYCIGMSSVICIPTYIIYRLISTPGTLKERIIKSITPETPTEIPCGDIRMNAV
Description: [3H]5-HT reuptake by rat brain synaptosomes. It counts as biochemical. The following applies: for inhibiting activity on the reuptake of 5-HT (in words): concentration 10 μmol/L, effectiveness equivalent to venlafaxine and DOV21947; for Inhibition of reuptake of 5-HT: rat prefrontal cortex synaptosomes, 0.1 mmol/L for control drug and drug to be detected.

Data set [2] has as its target T2, reuptake of norepinephrine (NA) by brain synaptosomes (Rattus norvegicus, UniProt Q63380).
T2 construct: taking prefrontal cortex for the [^3H]5-HT and [^3H]NA reuptake experiment; from tissue; host or cells: rat brain prefrontal cortex synaptosomes
The experiment in a line: [3H]NA reuptake by rat brain synaptosomes. Type of data set: biochemical. The following applies: for inhibiting activity on the reuptake of NA (in words): concentration 10 μmol/L, effectiveness equivalent to venlafaxine and DOV21947; for Inhibition of reuptake of NA / inhibition at 100 µM: rat prefrontal cortex synaptosomes, 0.1 mmol/L for control drug and drug to be detected.

The target in data set [3] is T3, reuptake of dopamine (DA) by brain synaptosomes (Rattus norvegicus, UniProt P23977).
T3 construct: taking striatum for the [^3H]DA reuptake experiment; from tissue; host or cells: rat brain striatum synaptosomes
T3 sequence (P23977 whole entry): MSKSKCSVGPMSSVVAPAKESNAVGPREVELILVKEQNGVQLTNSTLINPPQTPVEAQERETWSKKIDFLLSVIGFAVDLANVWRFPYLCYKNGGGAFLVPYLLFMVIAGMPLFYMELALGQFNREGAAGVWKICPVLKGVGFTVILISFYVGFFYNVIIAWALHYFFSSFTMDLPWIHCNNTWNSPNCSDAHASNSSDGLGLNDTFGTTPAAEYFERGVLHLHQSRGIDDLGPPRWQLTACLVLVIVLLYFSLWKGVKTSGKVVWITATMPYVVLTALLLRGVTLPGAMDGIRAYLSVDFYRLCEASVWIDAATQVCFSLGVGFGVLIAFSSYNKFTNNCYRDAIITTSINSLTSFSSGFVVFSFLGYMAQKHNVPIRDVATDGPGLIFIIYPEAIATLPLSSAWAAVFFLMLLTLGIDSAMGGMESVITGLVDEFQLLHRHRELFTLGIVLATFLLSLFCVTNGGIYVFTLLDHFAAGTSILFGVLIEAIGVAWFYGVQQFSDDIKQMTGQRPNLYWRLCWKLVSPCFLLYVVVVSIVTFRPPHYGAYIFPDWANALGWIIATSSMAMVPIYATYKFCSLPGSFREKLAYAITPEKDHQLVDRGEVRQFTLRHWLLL
Description: [3H]DA reuptake by rat brain synaptosomes. The following applies: for inhibiting activity on the reuptake of DA (in words): concentration 10 μmol/L, effectiveness equivalent to venlafaxine and DOV21947; for Inhibition of reuptake of DA / inhibition at 100 µM: rat striatum synaptosomes, 0.1 mmol/L for control drug and drug to be detected. Type of data set: biochemical.

The subject of data set [4] is mice. Description: forced swimming test of mice (immobility). Type of data set: in vivo. The following applies: for Immobility time: mice, swimming test.
For data set [5], the system named is mice. The experiment in a line: Acute toxicity, single dosage LD50 to mice. It counts as in vivo. The following applies: Bliss statistics, preliminary screening.
The subject of data set [6] is Salmonella typhimurium histidine auxotroph mutant TA97, TA98, TA100 and TA102. Type of data set: cell-based. An excerpt: Strains: Salmonella typhimurium histidine auxotroph mutant TA97, TA98, TA100 and TA102.
The experimental method: the method reported in Maron D M et al: (1983) Mutay Res. 113, 173-216 is used;
The experimental result: the experiment comprises two parts: −S9 and +S9.

Read-outs that look alike come from different tables or passages of the source.

T2 sequence (Q63380 1-617): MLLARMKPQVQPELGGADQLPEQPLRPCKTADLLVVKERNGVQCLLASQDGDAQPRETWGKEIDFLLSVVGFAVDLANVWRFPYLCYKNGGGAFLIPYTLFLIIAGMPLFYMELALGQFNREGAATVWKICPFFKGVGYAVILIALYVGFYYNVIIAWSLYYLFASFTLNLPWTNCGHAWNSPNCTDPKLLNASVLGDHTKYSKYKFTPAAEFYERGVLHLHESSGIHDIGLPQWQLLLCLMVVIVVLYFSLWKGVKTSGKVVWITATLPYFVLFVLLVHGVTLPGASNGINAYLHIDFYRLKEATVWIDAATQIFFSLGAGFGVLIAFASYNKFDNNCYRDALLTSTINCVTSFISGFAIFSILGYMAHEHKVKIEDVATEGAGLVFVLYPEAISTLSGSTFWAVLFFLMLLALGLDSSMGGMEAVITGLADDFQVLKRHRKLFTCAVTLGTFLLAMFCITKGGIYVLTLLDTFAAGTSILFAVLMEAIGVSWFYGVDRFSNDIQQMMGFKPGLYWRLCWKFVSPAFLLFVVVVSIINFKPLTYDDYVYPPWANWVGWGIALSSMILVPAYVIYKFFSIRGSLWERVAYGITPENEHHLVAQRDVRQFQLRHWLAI

Take `COc1ccc2cc([C@@H](O)[C@H](C)N3CCC(Cc4ccccc4)CC3)ccc2c1Cl` [Compound V-2, Erythro-4-benzyl-N-[1-methyl-2-hydroxy-2-(5-chloro-6-methoxynaphthalene-2-yl)]ethylpiperidine]: in data set [1], the “inhibiting activity on the reuptake of 5-HT (in words)” value was “stronger inhibiting activity” and the “Inhibition of reuptake of 5-HT” value was 105.6 ± 0.9. Further, in data set [2], the “inhibiting activity on the reuptake of NA (in words)” value is reported as “stronger inhibiting activity” and the “Inhibition of reuptake of NA” value was 65.3 ± 6.7. Further, in data set [3], the “inhibiting activity on the reuptake of DA (in words)” value is recorded as “stronger inhibiting activity” and the “Inhibition of reuptake of DA” value came out at 93.1 ± 2.0.

For the molecule `COc1ccc2cc([C@@H](O)[C@H](C)N3CCC(O)(Cc4ccccc4)CC3)ccc2c1Cl` [Compound V-14, Erythro-4-benzyl-4-hydroxy-N-[1-methyl-2-hydroxy-2-(5-chloro-6-methoxynaphthalene-2-yl)]ethylpiperidine], the “inhibiting activity on the reuptake of 5-HT (in words)” value in data set [1] was “stronger inhibiting activity”. Further, the “Inhibition of reuptake of 5-HT” value in data set [1] came to 94.9 ± 1.2. Also, the “inhibiting activity on the reuptake of NA (in words)” value in data set [2] is listed as “stronger inhibiting activity”. In addition, in data set [2], the “Inhibition of reuptake of NA” value was determined as 93.0 ± 20.8. Besides, the “inhibiting activity on the reuptake of DA (in words)” value in data set [3] is “stronger inhibiting activity”. The “Inhibition of reuptake of DA” value in data set [3] amounted to 91.0 ± 0.9. In addition, in data set [4] (forced swimming test of mice, effect similar to venlafaxine), the “in vivo anti-depression activity (in words)” value is reported as “strong in vivo anti-depression activity”. In addition, the “Immobility time” value in data set [4] (dosage 6.9 mg/kg) worked out at 52.8 ± 32.0 s; in data set [4] (dosage 13.8 mg/kg), 82.1 ± 62.0 s; in data set [4] (dosage 27.6 mg/kg), 74.9 ± 37.8 s. Also, the LD50 (in general, the dose expected to kill half of the subjects tested) in data set [5] is 1150 mg/kg. In addition, the bacteriostatic effect result in data set [6] (5000 μg/dish, TA97, S9 added testing system) is given as “have bacteriostatic effect”; in data set [6] (5000 μg/dish, non-S9 testing system), “have bacteriostatic effect”; in data set [6] (other dosages, all strains) it was “do nut have a bacteriostatic effect”. Moreover, the “Ames test, reverse mutation” value in data set [6] (all tested dosages, with or without S9) is “negative”.

On to `COc1ccc2cc(C(O)CCN3CCC(=Cc4ccccc4)CC3)ccc2c1Cl` (centres unmarked) [Compound V-32, 4-benzyl-methylene-N-[3-hydroxy-3-(5-chloro-6-methoxynaphthalene-2-yl)]propylpiperidine], for which, in data set [1], the “inhibiting activity on the reuptake of 5-HT (in words)” value is “stronger inhibiting activity” and the “Inhibition of reuptake of 5-HT” value stood at 104.4 ± 2.0. Further, in data set [2], the “inhibiting activity on the reuptake of NA (in words)” value is on record as “stronger inhibiting activity” and the “Inhibition of reuptake of NA” value was 36.6 ± 19.1. Moreover, in data set [3], the “inhibiting activity on the reuptake of DA (in words)” value is “stronger inhibiting activity” and the “Inhibition of reuptake of DA” value is 92.4 ± 7.6.

As for `COc1ccc2cc(C(O)C(C)N3CCC(=Cc4ccc(F)cc4)CC3)ccc2c1Cl` (centres unmarked) [Compound V-34, 4-(4-fluorobenzyl)-methylene-N-[1-methyl-2-hydroxy-2-(5-chloro-6-methoxynaphthalene-2-yl)]ethyl-piperidine], in data set [1], the “Inhibition of reuptake of 5-HT” value was determined as 106.3 ± 2.3. The “Inhibition of reuptake of NA” value in data set [2] is on record as 18.8 ± 13.4. For the same molecule, in data set [3], the “Inhibition of reuptake of DA” value came out at 99.1 ± 4.3.

Consider `COc1ccc2cc(C(O)C(C)N3CCC(=Cc4ccccc4)CC3)ccc2c1Cl` (centres unmarked) [Compound V-38, 4-benzyl-methylene-N-[1-methyl-2-hydroxy-2-(5-chloro-6-methoxynaphthalene-2-yl)]ethyl-piperidine], for which, in data set [1], the “inhibiting activity on the reuptake of 5-HT (in words)” value is given as “stronger inhibiting activity” and the “Inhibition of reuptake of 5-HT” value is on record as 107.0 ± 0.5. Also, in data set [2], the “inhibiting activity on the reuptake of NA (in words)” value is “stronger inhibiting activity” and the “Inhibition of reuptake of NA” value is listed as 87.4 ± 5.5. Also, in data set [3], the “inhibiting activity on the reuptake of DA (in words)” value is given as “stronger inhibiting activity” and the “Inhibition of reuptake of DA” value came to 99.6 ± 2.9.

As to `COc1ccc2cc([C@@H](O)[C@H](C)N3CC=C(Cc4ccccc4)CC3)ccc2c1Cl` [Compound V-40, Erythro-4-benzyl-N-[1-methyl-2-hydroxy-2-(5-chloro-6-methoxynaphthalene-2-yl)]ethyl-1,2,3,6-tetrahydropyridine], the “Inhibition of reuptake of 5-HT” value in data set [1] was 99.5 ± 1.6. In data set [2], the “Inhibition of reuptake of NA” value amounted to 62.6 ± 15.3. The “Inhibition of reuptake of DA” value in data set [3] stood at 50.7 ± 21.8.

For `COc1ccc2cc([C@@H](O)[C@H](C)N3CCC(OCc4ccccc4)CC3)ccc2c1Cl` [Compound V-50, Erythro-4-benzyloxy-N-[1-methyl-2-hydroxy-2-(5-chloro-6-methoxynaphthalene-2-yl)]ethylpiperidine], in data set [1], the “Inhibition of reuptake of 5-HT” value is 91.8 ± 1.6. For the same molecule, in data set [2], the “Inhibition of reuptake of NA” value is on record as 41.8 ± 7.3. Further, the “Inhibition of reuptake of DA” value in data set [3] came to 23.1 ± 16.8.

Take `Clc1ccc([C@]23CNC[C@H]2C3)cc1Cl` [DOV 21947, reference compound]: the inhibition – broadly, the drop in the measured response relative to a control, in per cent – at 100 µM in data set [1] (read-out: Inhibition of reuptake of 5-HT) was determined as 109 ± 3.8%; in data set [2], 61.9 ± 6%; in data set [3] it was 104 ± 4.2%.

Turning to `COc1ccc(C(CN(C)C)C2(O)CCCCC2)cc1` (centres unmarked) [venlafaxine, reference compound], the results for the inhibition at 100 µM in data set [2] and in data set [3] were 46.4 ± 4.6% and 48.6 ± 4.1%, respectively. Also, the entries for the “Immobility time” value in data set [4] (dosage 4.56 mg/kg), in data set [4] (dosage 9.12 mg/kg) and in data set [4] (dosage 18.24 mg/kg) were 57.1 ± 37.8 s, 77.4 ± 47.2 s and 80.8 ± 46.8 s, respectively.
